Measurements from ChEMBL document CHEMBL1138196, “Antitrypanosomal activity of 5'-deoxy-5'-(iodomethylene)adenosine and related 6-N-cyclopropyladenosine analogues” (J Med Chem, 2006).
≈ marks a conversion by molar mass, not a printed value.

Tested on: Vesicular stomatitis virus
Experiment: Antiviral activity against VSV in BHK cells
Type: functional, organism-based

In the case of `Nc1ncnc2c1ncn2[C@@H]1O[C@H](/C=C/I)[C@@H](O)[C@H]1O`, the IC50 is reported as 2 mg/L (≈ 5.14 µM).

Tested on: Trypanosoma brucei
Experiment: Antitrypanosomal activity against Trypanosoma brucei
Type: functional, organism-based

First: O[C@@H]1[C@H](O)[C@@H](/C=C/I)O[C@H]1n1cnc2c(NC3CC3)ncnc21
Second: O[C@@H]1[C@H](O)[C@@H](/C=C/F)O[C@H]1n1cnc2c(NC3CC3)ncnc21
The IC50 of the first is 1.6-fold lower: 12 mg/L (≈ 28 µM) for the first, 19 mg/L (≈ 59.1 µM) for the second.

Going from `Nc1ncnc2c1ncn2[C@@H]1O[C@H](/C=C\I)[C@@H](O)[C@H]1O` to `Nc1ncnc2c1ncn2[C@@H]1O[C@H](/C=C/I)[C@@H](O)[C@H]1O`, the IC50 falls from 45 mg/L (≈ 116 µM) to 9 mg/L (≈ 23.1 µM) (5-fold).

First: Nc1ncnc2c1ncn2[C@@H]1O[C@](S)(CO)[C@@H](O)[C@H]1O
Second: Nc1ncnc2c1ncn2[C@@H]1O[C@H](CSCCO)[C@@H](O)[C@H]1O
The IC50 of the first is 88-fold higher: 14 mg/L (≈ 46.8 µM) for the first, 0.16 mg/L (≈ 0.489 µM) for the second.

Compared with `CC(=O)OCCSC[C@H]1O[C@@H](n2cnc3c(N)ncnc32)[C@H](OC(C)=O)[C@@H]1OC(C)=O`, `CN(C/C=C\CN)C[C@H]1O[C@@H](n2cnc3c(N)ncnc32)[C@H](O)[C@@H]1O` is 6-fold lower in IC50: 0.12 mg/L (≈ 0.265 µM) for the first, 0.02 mg/L (≈ 0.0572 µM) for the second.

`N#C/N=C/[C@H]1O[C@@H](n2cnc3c(NC4CC4)ncnc32)[C@H](O)[C@@H]1O` gave an IC50 of 19 mg/L (≈ 57.7 µM).
